Data as given in patent US8986957B2, “Cell culture medium” (Novartis AG, priority 2010, dated 2015).

Key:
[1] = system: CHO cells expressing mAb3 and mAb4
Description: In a further set of experiments, choline chloride is added in various concentrations (40; 80; 120; 160, 200; 240; 500; 840; 1000; 3000 und 5000 mg/l in total) to powder growth medium. The media thus obtained are used for producing mAb3 and mAb4, respectively, generally as outlined above.
Normalized antibody concentrations, normalized viable cell densities, and viabilities, for mAb3 and in addition for mAb4 the normalized cell specific productivity for the whole duration of the cultivation (13 resp. 17 days) are further depicted in FIG. 14 to FIG. 24.

[2] = system: CHO cells expressing mAb3; conditions: higher concentrations of choline chloride in production medium vs standard 240 mg/L
Description: Three aliquots of this parental cell line are transfected to express three different monoclonal antibodies mAb1, mAb2, mAb3, respectively.
All nine shake flasks (three for each experiment) are run under the same conditions, except for the medium. The conditions involve a fed-batch culture with two daily bolus feeds starting at days 3 and 5 with a feeding rate of 2 and 0.4% of the initial culture volume per day; a temperature shift from 36.5° C. to 33° C. at day 5; 10% CO2 in the incubator; a shaking rate of 150 rpm (stroke radius=25 mm). The cell growth/viability of the cells as well as the resulting titer of recombinant antibody expressed are determined.

[3] = choline chloride 3000 mg/l and more

C[N+](C)(C)CCO.[Cl-] [choline chloride]
viability and antibody concentration ([1]; 40 mg/l choline chloride in total, after 13 or 17 days in culture): lowest values
viability ([1]; all choline concentrations higher than 40 mg/l): higher
cell growth [1, 3]: do not grow
viability of the cells [1, 3]: do not negatively affect the viability
normalized antibody concentration ([1]; choline chloride 3000 mg/l and more, after 13 or 17 days): below 1
cell growth or polypeptide titer [2]: did not result in improved cell growth or polypeptide titer
